From ChEMBL document CHEMBL1146617, “2-Aryl-3,6-dialkyl-5-dialkylaminopyrimidin-4-ones as novel crf-1 receptor antagonists” (Bioorg Med Chem Lett, 2003)

Assay: in vitro
Conditions: human, microsomes
With `CCCN(CCC)c1c(C)nc(-c2c(OC)cccc2OC(F)F)n(CC)c1=O` the half-life was 1.8 min.
Work on `CCCN(CCC)c1c(C)nc(-c2ccc(OC)cc2OC)n(CCOC)c1=O` yielded a half-life of 1.3 min.
With `CCCN(CCC)c1c(C)nc(-c2c(OC)cccc2OC)nc1O` the half-life was 13.3 min.
Compound `CCCN(CCC)c1c(C)nc(-c2ccc(OC)cc2OC)n(CC2CC2)c1=O` has a half-life of 1.5 min.
Work on `CCCN(CCC)c1c(C)nc(-c2c(C)cc(C)cc2C)nc1O` yielded a half-life of 7.5 min.
Compound `CCCN(CCC)c1c(C)nc(-c2c(C)cc(C)cc2OC)n(CC(F)(F)F)c1=O` has a half-life of 3.4 min.
Work on `CCCN(CCC)c1c(CC)nc(-c2c(C)cc(C)cc2OC)[nH]c1=O` yielded a half-life of 8.1 min.
Work on `CCCN(CCC)c1c(C)nc(-c2c(C)cc(C)cc2OC)n(C(C)C)c1=O` yielded a half-life of 2.1 min.
`CCCN(CCC)c1c(C)nc(-c2c(C)cc(C)cc2C)n(CC)c1=O` gave a half-life of 3.6 min.
Compound `CCCN(CCC)c1c(C)nc(-c2ccc(OC)cc2OC)n(CCC)c1=O` has a half-life of 2.3 min.
Work on `CCCN(CCC)c1c(C)nc(-c2c(C)cc(C)cc2OC)n(CCF)c1=O` yielded a half-life of 3 min.
Work on `CCCN(CCC)c1c(CC)nc(-c2c(C)cc(C)cc2OC)n(CC)c1=O` yielded a half-life of 2.3 min.
Work on `CCCN(CCC)c1c(C)nc(-c2ccc(Cl)cc2Cl)n(CC)c1=O` yielded a half-life of 1.9 min.
`CCCN(CCC)c1c(C)nc(-c2ccc(OC)cc2OC)nc1O` showed a half-life of 9.4 min.
`CCCN(CCC)c1c(C)nc(-c2c(C)cc(C)cc2OC)n(C)c1=O` showed a half-life of 2.5 min.
Compound `CCCN(CCC)c1c(C)nc(-c2c(C)cc(C)cc2OC)n(CCC)c1=O` has a half-life of 3 min.
`CCCN(CCC)c1c(C)nc(-c2c(C)cc(C)cc2C)n(CCN2CCCC2)c1=O` gave a half-life of 4.2 min.
`CCCN(CCC)c1c(C)nc(-c2c(C)cc(C)cc2C)n(C)c1=O` showed a half-life of 4.6 min.
`CCCN(CCC)c1c(C)nc(-c2c(C)cc(C)cc2OC)nc1O` gave a half-life of 15.5 min.
Compound `CCCN(CCC)c1c(C)nc(-c2c(OC)cccc2OC(F)F)nc1O` has a half-life of 21.6 min.
